Assays:
[1] = parameters: species or system rats; conditions: rat, 100 mg/kg
Method: 5-[4-(3-Carboxy-propionylsulfamoyl)-phenylazo]-2-hydroxy-benzoic acid (1), a compound of the present invention, and sulfasalazine (used as a control; not part of the present invention) were orally dosed to rats. The degradation and the generation of their metabolites after the oral dosing were measured to be able to confirm that (1) undergoes bacterial azo reduction and yields its metabolites, 5-aminosalicylic acid (5-ASA) and C4 sulfanomide.
This experiment was performed to confirm that (1) undergoes a bacterial reduction process and yields its metabolites in in-vivo metabolism. The quantification of its metabolites was also carried out. Sulfasalazine was used as a control since the same azo bond cleavage by bacteria occurs with it, which results in 5-aminosalicylic acid and sulfapyridine as its metabolites.
A total of 7 rats were used for the experiment and methylcellulose was used as a vehicle. The dosage amount was 100 mg/kg per rat. Three rats were dosed with (1) and the other three rats were dosed with sulfasalazine. One rat was used as a control and dosed with methylcellulose. Both urine and feces were collected over 2 days and analyzed by […].
Urine was collected each day and 300 μL of aliquot from each sample was centrifuged for 10 minutes at 5000 g. 80 μL of supernatant was injected for analysis. Feces was also collected, each day and homogenized with a 1:1 mixture of water and acetonitrile. This mixture was then centrifuged for 20 minutes at 5000 g. 80 μL of supernatant was injected for analysis.
A Waters 2690 HPLC was used for sample analysis as follows:
Mobile phase programming: Gradient
Mobile phase: A=Water+0.1% TFA B=Acetonitrile+0.1% TFA
Column: Phenomenex Max RP, 80 Å, 4.6 mm×250 mm
PDA settings: Collected spectrum: 210-400nm Extracted chromatogram: 280 and/or other
Run time/sample: Approximately 50 min.

melting point [°C] | compounds detected, day 2 collection ([1]; in vivo, po) | metabolites detected in urine ([1]; in vivo, po) | parent compound detected in feces ([1]; in vivo, po) | parent compound detected in urine ([1]; in vivo, po) | azo reduction in vivo ([1]; po) | SMILES | degradation after oral dosing ([1]; in vivo) | metabolites detected in feces, day 1 collection ([1]; in vivo, po) | generation of sulfapyridine ([1]; in vivo, po)
178 | – | – | – | – | – | O=C(O)CC(=O)NS(=O)(=O)c1ccc(N=Nc2ccc(O)c(C(=O)O)c2)cc1 [Example 3, 5-[4-(2-Carboxy-Acetylsulfamoyl)-Phenylazo]-2-Hydroxy-Benzoic Acid] | – | – | –
192 | No compounds were detected | none of its metabolites were detected | not detected | only a very small amount | undergo azo reduction | O=C(O)CCC(=O)NS(=O)(=O)c1ccc(N=Nc2ccc(O)c(C(=O)O)c2)cc1 [(1), 5-[4-(3-Carboxy-propionylsulfamoyl)-phenylazo]-2-hydroxy-benzoic acid] | degraded and its metabolites were produced as expected | acetylated 5-ASA and C4 sulfanomide were detected | –
– | No compounds were detected | – | – | – | undergo azo reduction | O=C(O)c1cc(/N=N/c2ccc(S(=O)(=O)Nc3ccccn3)cc2)ccc1O [Sulfasalazine, sulfasalazine, reference compound] | also degraded | Most rats showed acetylated 5-ASA | only one rat showed the generation of sulfapyridine

Reference: US6458776B1, “5-ASA derivatives having anti-inflammatory and antibiotic activity and methods of treating diseases therewith” (Nobex Corporation, priority 2000, dated 2002)
